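GI50 is the concentration that inhibits growth by half. TGI marks complete inhibition of growth.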
Tests used:
Assay in all cases: NCI tumour cell line growth inhibition, 384-well format
MALME-3M melanoma = tested on: MALME-3M melanoma
BT-549 breast = tested on: BT-549 breast
TK-10 renal = tested on: TK-10 renal
KM12 colon = tested on: KM12 colon
HCT-116 colon = tested on: HCT-116 colon
HS 578T breast = tested on: HS 578T breast
SK-MEL-2 melanoma = tested on: SK-MEL-2 melanoma
NCI/ADR-RES ovarian = tested on: NCI/ADR-RES ovarian
OVCAR-3 ovarian = tested on: OVCAR-3 ovarian
UACC-62 melanoma = tested on: UACC-62 melanoma
A549 NSCLC = tested on: A549 NSCLC
HOP-62 NSCLC = tested on: HOP-62 NSCLC
RPMI-8226 leukemia = tested on: RPMI-8226 leukemia
HCT-15 colon = tested on: HCT-15 colon
M14 melanoma = tested on: M14 melanoma
COLO 205 colon = tested on: COLO 205 colon
LOX IMVI melanoma = tested on: LOX IMVI melanoma
NCI-H460 NSCLC = tested on: NCI-H460 NSCLC
MDA-MB-435 melanoma = tested on: MDA-MB-435 melanoma
SN12C renal = tested on: SN12C renal
RXF 393 renal = tested on: RXF 393 renal
NCI-H23 lung = tested on: NCI-H23 lung
U251 glioblastoma = tested on: U251 glioblastoma
DU-145 prostate = tested on: DU-145 prostate
MDA-MB-468 breast = tested on: MDA-MB-468 breast
SF-539 CNS = tested on: SF-539 CNS
SNB-19 CNS = tested on: SNB-19 CNS
SK-MEL-28 melanoma = tested on: SK-MEL-28 melanoma
UO-31 renal = tested on: UO-31 renal
IGROV1 ovarian = tested on: IGROV1 ovarian
NCI-H322M lung = tested on: NCI-H322M lung
SK-OV-3 ovarian = tested on: SK-OV-3 ovarian
EKVX NSCLC = tested on: EKVX NSCLC
HOP-92 NSCLC = tested on: HOP-92 NSCLC
CAKI-1 renal = tested on: CAKI-1 renal
SR leukemia = tested on: SR leukemia
PC-3 prostate = tested on: PC-3 prostate
SK-MEL-5 melanoma = tested on: SK-MEL-5 melanoma
A498 renal = tested on: A498 renal
ACHN renal = tested on: ACHN renal
MOLT-4 leukemia = tested on: MOLT-4 leukemia
SF-295 CNS = tested on: SF-295 CNS
SNB-75 CNS = tested on: SNB-75 CNS
HT29 colon = tested on: HT29 colon
SW-620 colon = tested on: SW-620 colon
MCF7 breast = tested on: MCF7 breast
HCC-2998 colon = tested on: HCC-2998 colon
NCI-H522 lung = tested on: NCI-H522 lung
CCRF-CEM leukemia = tested on: CCRF-CEM leukemia
UACC-257 melanoma = tested on: UACC-257 melanoma
MDA-MB-231 breast = tested on: MDA-MB-231 breast
T-47D breast = tested on: T-47D breast
K-562 leukemia = tested on: K-562 leukemia
SF-268 CNS = tested on: SF-268 CNS
HL-60(TB) leukemia = tested on: HL-60(TB) leukemia
786-0 renal = tested on: 786-0 renal
NCI-H226 lung = tested on: NCI-H226 lung
OVCAR-5 ovarian = tested on: OVCAR-5 ovarian
OVCAR-4 ovarian = tested on: OVCAR-4 ovarian

CN1CCN(c2ccc3nc(-c4c5cccccc-5[nH]c4=O)[nH]c3c2)CC1
GI50 (MALME-3M melanoma): 11 µM
TGI (MALME-3M melanoma): 23.1 µM
GI50 (BT-549 breast): 4.48 µM
TGI (BT-549 breast): 14.6 µM
GI50 (TK-10 renal): 4.51 µM
TGI (TK-10 renal): 19.3 µM
GI50 (KM12 colon): 371 nM
TGI (KM12 colon): 10.7 µM
GI50 (HCT-116 colon): 12.1 µM
TGI (HCT-116 colon): 25.3 µM
GI50 (HS 578T breast): 4.73 µM
TGI (HS 578T breast): 18.4 µM
GI50 (SK-MEL-2 melanoma): 28.6 µM
TGI (SK-MEL-2 melanoma): 44.4 µM
GI50 (NCI/ADR-RES ovarian): 16.7 µM
TGI (NCI/ADR-RES ovarian): 47.1 µM
GI50 (OVCAR-3 ovarian): 12.3 µM
TGI (OVCAR-3 ovarian): 28.2 µM
GI50 (UACC-62 melanoma): 8.99 µM
TGI (UACC-62 melanoma): 21.2 µM
GI50 (A549 NSCLC): 6.49 µM
TGI (A549 NSCLC): 38.1 µM
GI50 (HOP-62 NSCLC): 4.43 µM
TGI (HOP-62 NSCLC): 20.9 µM
GI50 (RPMI-8226 leukemia): 10 µM
TGI (RPMI-8226 leukemia): 21.7 µM
GI50 (HCT-15 colon): 7.04 µM
TGI (HCT-15 colon): 26.4 µM
GI50 (M14 melanoma): 9.46 µM
TGI (M14 melanoma): 21.4 µM
GI50 (COLO 205 colon): 5.27 µM
TGI (COLO 205 colon): 17.7 µM
GI50 (LOX IMVI melanoma): 10.7 µM
TGI (LOX IMVI melanoma): 22.7 µM
GI50 (NCI-H460 NSCLC): 3.65 µM
TGI (NCI-H460 NSCLC): 13.8 µM
GI50 (MDA-MB-435 melanoma): 11.9 µM
TGI (MDA-MB-435 melanoma): 31.9 µM
GI50 (SN12C renal): 3.39 µM
TGI (SN12C renal): 17.8 µM
GI50 (RXF 393 renal): 2700 nM
TGI (RXF 393 renal): 8.68 µM
GI50 (NCI-H23 lung): 7.46 µM
TGI (NCI-H23 lung): 26.8 µM
GI50 (U251 glioblastoma): 5.62 µM
TGI (U251 glioblastoma): 22.2 µM
GI50 (DU-145 prostate): 6.01 µM
TGI (DU-145 prostate): 26.7 µM
GI50 (MDA-MB-468 breast): 5.61 µM
TGI (MDA-MB-468 breast): 21 µM
GI50 (SF-539 CNS): 3.66 µM
TGI (SF-539 CNS): 13.2 µM
GI50 (SNB-19 CNS): 10.3 µM
TGI (SNB-19 CNS): 39.2 µM
GI50 (SK-MEL-28 melanoma): 15.9 µM
TGI (SK-MEL-28 melanoma): 35 µM
GI50 (UO-31 renal): 6.3 µM
TGI (UO-31 renal): 19.2 µM
GI50 (IGROV1 ovarian): 3.84 µM
TGI (IGROV1 ovarian): 15.6 µM
GI50 (NCI-H322M lung): 10.4 µM
TGI (NCI-H322M lung): 33.6 µM
GI50 (SK-OV-3 ovarian): 5.76 µM
TGI (SK-OV-3 ovarian): 23.7 µM
GI50 (EKVX NSCLC): 10.1 µM
TGI (EKVX NSCLC): 33.3 µM
GI50 (HOP-92 NSCLC): 3.99 µM
TGI (HOP-92 NSCLC): 16.7 µM
GI50 (CAKI-1 renal): 5.23 µM
TGI (CAKI-1 renal): 18.2 µM
GI50 (SR leukemia): 2170 nM
TGI (SR leukemia): 4.45 µM
GI50 (PC-3 prostate): 6.81 µM
TGI (PC-3 prostate): 25.3 µM
GI50 (SK-MEL-5 melanoma): 8.18 µM
TGI (SK-MEL-5 melanoma): 21 µM
GI50 (A498 renal): 12.7 µM
TGI (A498 renal): 26.3 µM
GI50 (ACHN renal): 4.63 µM
TGI (ACHN renal): 16.8 µM
GI50 (MOLT-4 leukemia): 1800 nM
TGI (MOLT-4 leukemia): 3.2 µM
GI50 (SF-295 CNS): 12.2 µM
TGI (SF-295 CNS): 32 µM
GI50 (SNB-75 CNS): 3.71 µM
TGI (SNB-75 CNS): 17.6 µM
GI50 (HT29 colon): 6.92 µM
TGI (HT29 colon): 23.9 µM
GI50 (SW-620 colon): 6.59 µM
TGI (SW-620 colon): 24.9 µM
GI50 (MCF7 breast): 7.26 µM
TGI (MCF7 breast): 21.3 µM
GI50 (HCC-2998 colon): 7.05 µM
TGI (HCC-2998 colon): 29.1 µM
GI50 (NCI-H522 lung): 9.06 µM
TGI (NCI-H522 lung): 29.6 µM
GI50 (CCRF-CEM leukemia): 3.47 µM
TGI (CCRF-CEM leukemia): 10.7 µM
GI50 (UACC-257 melanoma): 9.05 µM
TGI (UACC-257 melanoma): 21.4 µM
GI50 (MDA-MB-231 breast): 5.78 µM
TGI (MDA-MB-231 breast): 22.1 µM
GI50 (T-47D breast): 16.9 µM
TGI (T-47D breast): 37.9 µM
GI50 (K-562 leukemia): 4.85 µM
TGI (K-562 leukemia): 16.7 µM
GI50 (SF-268 CNS): 10.3 µM
TGI (SF-268 CNS): 31.8 µM
GI50 (HL-60(TB) leukemia): 3.83 µM
TGI (HL-60(TB) leukemia): 12.4 µM
GI50 ([…]-0 renal): 7.07 µM
TGI (786-0 renal): 28.1 µM
GI50 (NCI-H226 lung): 4.07 µM
TGI (NCI-H226 lung): 18 µM
GI50 (OVCAR-5 ovarian): 10.5 µM
TGI (OVCAR-5 ovarian): 33.4 µM
GI50 (OVCAR-4 ovarian): 10.3 µM
TGI (OVCAR-4 ovarian): 38.6 µM

Source: PubChem BioAssay (NCI)
